In ChEMBL document CHEMBL1759880, “A facile, one-pot synthesis, characterization and antimicrobial activity of o-hydroxy anilide derivatives and 1-substituted-1,3-dicyclohexylurea analogs of long chain carboxylic acids” (2011):
≈ marks a conversion by molar mass, not a printed value.

Experiments:
[1] = tested on: Staphylococcus aureus; experiment: Antibacterial activity against Staphylococcus aureus ATCC 25923 after 24 hrs by broth dilution technique; format: functional; settings: ATCC-25923, 24 h
[2] = tested on: Escherichia coli; experiment: Antibacterial activity against Escherichia coli ATCC 25922 after 24 hrs by broth dilution technique; format: functional; settings: ATCC-25922, 24 h
[3] = tested on: Escherichia coli; experiment: Antibacterial activity against Escherichia coli ATCC 25922 after 24 hrs by disc diffusion method; format: functional
[4] = tested on: Klebsiella pneumoniae; experiment: Antibacterial activity against Klebsiella pneumoniae clinical isolate after 24 hrs by disc diffusion method; format: functional
[5] = tested on: Streptococcus pyogenes; experiment: Antibacterial activity against Streptococcus pyogenes clinical isolate after 24 hrs by broth dilution technique; format: functional
[6] = tested on: Klebsiella pneumoniae; experiment: Antibacterial activity against Klebsiella pneumoniae clinical isolate after 24 hrs by broth dilution technique; format: functional
[7] = tested on: Streptococcus pyogenes; experiment: Antibacterial activity against Streptococcus pyogenes clinical isolate after 24 hrs by disc diffusion method; format: functional
[8] = tested on: Staphylococcus aureus; experiment: Antibacterial activity against Staphylococcus aureus ATCC 25923 after 24 hrs by disc diffusion method; format: functional
[9] = tested on: Candida albicans; experiment: Antifungal activity against Candida albicans after 3 to 4 days by disc diffusion method; format: functional
[10] = tested on: Aspergillus fumigatus; experiment: Antifungal activity against Aspergillus fumigatus after 3 to 4 days by disc diffusion method; format: functional
[11] = tested on: Talaromyces marneffei; experiment: Antifungal activity against Penicillium marneffei after 3 to 4 days by disc diffusion method; format: functional
[12] = tested on: Trichophyton mentagrophytes; experiment: Antifungal activity against Trichophyton mentagrophytes after 3 to 4 days by disc diffusion method; format: functional
[13] = tested on: Candida albicans; experiment: Antifungal activity against Candida albicans after 48 hrs by broth dilution technique; format: functional
[14] = tested on: Aspergillus fumigatus; experiment: Antifungal activity against Aspergillus fumigatus after 48 hrs by broth dilution technique; format: functional
[15] = tested on: Talaromyces marneffei; experiment: Antifungal activity against Penicillium marneffei after 48 hrs by broth dilution technique; format: functional
[16] = tested on: Trichophyton mentagrophytes; experiment: Antifungal activity against Trichophyton mentagrophytes after 48 hrs by broth dilution technique; format: functional
[17] = tested on: Pseudomonas aeruginosa; experiment: Antibacterial activity against Pseudomonas aeruginosa ATCC 27853 after 24 hrs by disc diffusion method
[18] = tested on: Pseudomonas aeruginosa; experiment: Antibacterial activity against Pseudomonas aeruginosa ATCC 27853 after 24 hrs by broth dilution technique; settings: ATCC-27853, 24 h

SMILES	MIC [1] [µg/mL]	MIC [2] [µg/mL]	MIC [5] [µg/mL]	MIC [13] [µg/mL]	MIC [18] [µg/mL]	MBC [1] [µg/mL]	MBC [2] [µg/mL]	diameter of the inhibition zone (DIZ) [3] [mm]	diameter of the inhibition zone (DIZ) [4] [mm]	MBC [5] [µg/mL]	MBC [6] [µg/mL]	diameter of the inhibition zone (DIZ) [7] [mm]	diameter of the inhibition zone (DIZ) [8] [mm]	diameter of the inhibition zone (DIZ) [9] [mm]	diameter of the inhibition zone (DIZ) [10] [mm]	diameter of the inhibition zone (DIZ) [11] [mm]	diameter of the inhibition zone (DIZ) [12] [mm]	MFC [13] [µg/mL]	diameter of the inhibition zone (DIZ) [17] [mm]	MBC [18] [µg/mL]	also measured
CCCCCCCCCCCCCCCC(=O)N(C(=O)NC1CCCCC1)C1CCCCC1	50 (≈ 108 µM)	50 (≈ 108 µM)	50 (≈ 108 µM)	25 (≈ 54 µM)	25 (≈ 54 µM)	100 (≈ 216 µM)	100 (≈ 216 µM)	12.3	10.7	100 (≈ 216 µM)	100 (≈ 216 µM)	11.2	10.1	14.2	12.5	9.9	10.7	50 (≈ 108 µM)	14.9	100 (≈ 216 µM)	MIC [6]: 50 µg/mL (≈ 108 µM); MFC [14]: 100 µg/mL (≈ 216 µM); MIC [14]: 50 µg/mL (≈ 108 µM); MFC [15]: 100 µg/mL (≈ 216 µM); MIC [15]: 50 µg/mL (≈ 108 µM); MFC [16]: 25 µg/mL (≈ 54 µM); MIC [16]: 12.5 µg/mL (≈ 27 µM)
CCCCCCCCCCCCCCCCCC(=O)N(C(=O)NC1CCCCC1)C1CCCCC1	50 (≈ 102 µM)	50 (≈ 102 µM)	50 (≈ 102 µM)	25 (≈ 50.9 µM)	25 (≈ 50.9 µM)	100 (≈ 204 µM)	100 (≈ 204 µM)	13.3	12.7	100 (≈ 204 µM)	100 (≈ 204 µM)	11.5	11.3	15.1	13.6	10.5	12.2	50 (≈ 102 µM)	12.2	100 (≈ 204 µM)	MIC [6]: 100 µg/mL (≈ 204 µM); MFC [14]: 100 µg/mL (≈ 204 µM); MIC [14]: 50 µg/mL (≈ 102 µM); MFC [15]: 100 µg/mL (≈ 204 µM); MIC [15]: 50 µg/mL (≈ 102 µM); MFC [16]: 100 µg/mL (≈ 204 µM); MIC [16]: 50 µg/mL (≈ 102 µM)
C=CCCCCCCCCC(=O)N(C(=O)NC1CCCCC1)C1CCCCC1		100 (≈ 256 µM)		50 (≈ 128 µM)	50 (≈ 128 µM)		100 (≈ 256 µM)	10.6						12.1				100 (≈ 256 µM)	12.1	100 (≈ 256 µM)	

Continued, in another order:

MIC [1] [µg/mL]	MIC [2] [µg/mL]	MIC [5] [µg/mL]	MIC [13] [µg/mL]	MIC [18] [µg/mL]	SMILES	MBC [1] [µg/mL]	MBC [2] [µg/mL]	diameter of the inhibition zone (DIZ) [3] [mm]	diameter of the inhibition zone (DIZ) [4] [mm]	MBC [5] [µg/mL]	MBC [6] [µg/mL]	diameter of the inhibition zone (DIZ) [7] [mm]	diameter of the inhibition zone (DIZ) [8] [mm]	diameter of the inhibition zone (DIZ) [9] [mm]	diameter of the inhibition zone (DIZ) [10] [mm]	diameter of the inhibition zone (DIZ) [11] [mm]	diameter of the inhibition zone (DIZ) [12] [mm]	MFC [13] [µg/mL]	diameter of the inhibition zone (DIZ) [17] [mm]	MBC [18] [µg/mL]	also measured
100 (≈ 266 µM)	100 (≈ 266 µM)	50 (≈ 133 µM)	12.5 (≈ 33.3 µM)	100 (≈ 266 µM)	CCCCCCCCCCCCCCCCCC(=O)Nc1ccccc1O	100 (≈ 266 µM)	100 (≈ 266 µM)	12.4	11.4	100 (≈ 266 µM)	100 (≈ 266 µM)	10.8	10.5	14.7	12.4	10.2	10.5	25 (≈ 66.6 µM)	11.9	100 (≈ 266 µM)	MIC [6]: 50 µg/mL (≈ 133 µM); MFC [14]: 50 µg/mL (≈ 133 µM); MIC [14]: 25 µg/mL (≈ 66.6 µM); MFC [15]: 100 µg/mL (≈ 266 µM); MIC [15]: 50 µg/mL (≈ 133 µM); MFC [16]: 100 µg/mL (≈ 266 µM); MIC [16]: 50 µg/mL (≈ 133 µM)
100 (≈ 363 µM)			50 (≈ 182 µM)		C=CCCCCCCCCC(=O)Nc1ccccc1O			12.7			100 (≈ 363 µM)	11.1	10.9	12.5	9.2	8.9	8.3	100 (≈ 363 µM)	14.3		MIC [6]: 100 µg/mL (≈ 363 µM)
100 (≈ 268 µM)	100 (≈ 268 µM)	50 (≈ 134 µM)	50 (≈ 134 µM)	100 (≈ 268 µM)	CCCCCCCC/C=C\CCCCCCCC(=O)Nc1ccccc1O	100 (≈ 268 µM)	100 (≈ 268 µM)	13.2	10.8	100 (≈ 268 µM)		11.4	11.1	15.3	11.7	9.2	8.9	50 (≈ 134 µM)	15.2	100 (≈ 268 µM)	MFC [14]: 100 µg/mL (≈ 268 µM); MIC [14]: 25 µg/mL (≈ 66.9 µM); MFC [15]: 100 µg/mL (≈ 268 µM); MIC [15]: 50 µg/mL (≈ 134 µM); MFC [16]: 100 µg/mL (≈ 268 µM); MIC [16]: 50 µg/mL (≈ 134 µM)
